pIC50: −log10 of the molar value.
Key:
HCC827 [1] = test: Antiproliferative activity against human HCC827 cells harboring EGFR Del19 mutant assessed as inhibition of cell growth incubated for 48 to 72 hrs by CCK-8 assay; assay type: functional, cell-based
NCI-H1975 [2] = test: Antiproliferative activity against human NCI-H1975 cells harboring EGFR L858R/T790M double mutant assessed as inhibition of cell growth incubated for 48 to 72 hrs by CCK-8 assay; assay type: functional, cell-based
[3] = Antiproliferative activity against human H1975-TM cells harboring EGFR L858R/T790M/C797S mutant assessed as inhibition of cell growth incubated for 48 to 72 hrs by CCK-8 assay; assay type: functional, cell-based
A-431 = test: Antiproliferative activity against human A-431 cells harboring EGFR wild type assessed as inhibition of cell growth incubated for 48 to 72 hrs by CCK-8 assay; assay type: functional, cell-based
A549 = test: Antiproliferative activity against human A549 cells harboring EGFR wild type assessed as inhibition of cell growth incubated for 48 to 72 hrs by CCK-8 assay; assay type: functional, cell-based
[4] = Antitumor activity against human H1975-TM cells xenografted in BALB/c mouse assessed as tumor growth inhibition at 10 mg/kg,ip once daily for 14 days relative to control; assay type: functional; details: 336 h, time 14 day, read-out: TGI
HCC827 [5] = test: Antitumor activity against human HCC827 cells xenografted in BALB/c mouse assessed as tumor growth inhibition at 5 mg/kg,ip once daily for 28 days relative to control; assay type: functional; details: HCC827, 672 h, time 28 day, read-out: TGI
NCI-H1975 [6] = test: Antitumor activity against human NCI-H1975 cells xenografted in BALB/c mouse assessed as tumor growth inhibition at 10 mg/kg,ip once daily for 22 days relative to control; assay type: functional; details: NCI-H1975, 528 h, time 22 day, read-out: TGI

Structure (SMILES) | pIC50 (HCC827 [1]) | pIC50 (NCI-H1975 [2]) | pIC50 (A-431) | pIC50 (A549) | pIC50 [3] | inhibition in vivo at 10 mg/kg [4] [%] | inhibition in vivo at 5 mg/kg (HCC827 [5]) [%] | inhibition in vivo at 10 mg/kg (NCI-H1975 [6]) [%]
Cc1ncsc1-c1ccc(CNC(=O)[C@@H]2C[C@@H](O)CN2C(=O)[C@@H](NC(=O)CCCCCCCCCCn2cc(COc3cc4ncnc(Nc5ccc(F)c(Cl)c5)c4cc3NC(=O)/C=C/CN3CCCCC3)nn2)C(C)(C)C)cc1 | 8.22 | < 4.70 | < 4.70 | < 4.70 | < 4.70 | – | – | –
Cc1ncsc1-c1ccc(CNC(=O)[C@@H]2C[C@@H](O)CN2C(=O)[C@@H](NC(=O)CCCCn2cc(CCCCCOc3cc4ncnc(Nc5ccc(F)c(Cl)c5)c4cc3NC(=O)/C=C/CN3CCCCC3)nn2)C(C)(C)C)cc1 | 7.34 | 4.83 | < 4.70 | < 4.70 | < 4.70 | – | – | –
Cc1ncsc1-c1ccc(CNC(=O)[C@@H]2C[C@@H](O)CN2C(=O)[C@@H](NC(=O)CCCCCCCCCCn2cc(CCCCCOc3cc4ncnc(Nc5ccc(F)c(Cl)c5)c4cc3NC(=O)/C=C/CN3CCCCC3)nn2)C(C)(C)C)cc1 | 7.57 | < 4.70 | < 4.70 | < 4.70 | < 4.70 | – | – | –
Cc1ncsc1-c1ccc(CNC(=O)[C@@H]2C[C@@H](O)CN2C(=O)[C@@H](NC(=O)CCCCCCCCCn2cc(CCCCCOc3cc4ncnc(Nc5ccc(F)c(Cl)c5)c4cc3NC(=O)/C=C/CN3CCCCC3)nn2)C(C)(C)C)cc1 | 7.74 | 5.03 | < 4.70 | 5.03 | < 4.70 | – | – | –
Cc1ncsc1-c1ccc(CNC(=O)[C@@H]2C[C@@H](O)CN2C(=O)[C@@H](NC(=O)COCCn2cc(CCCCCOc3cc4ncnc(Nc5ccc(F)c(Cl)c5)c4cc3NC(=O)/C=C/CN3CCCCC3)nn2)C(C)(C)C)cc1 | 6.77 | 4.85 | < 4.70 | < 4.70 | < 4.70 | – | – | –
Cc1ncsc1-c1ccc(CNC(=O)[C@@H]2C[C@@H](O)CN2C(=O)[C@@H](NC(=O)COCCOCCOCCn2cc(CCCCCOc3cc4ncnc(Nc5ccc(F)c(Cl)c5)c4cc3NC(=O)/C=C/CN3CCCCC3)nn2)C(C)(C)C)cc1 | 7.05 | 5.64 | < 4.70 | < 4.70 | < 4.70 | – | – | –
CCN(CC)C/C=C/C(=O)Nc1cc2c(Nc3ccc(F)c(Cl)c3)ncnc2cc1OCc1cn(CCCCCCCCCCC(=O)N[C@H](C(=O)N2C[C@H](O)C[C@H]2C(=O)N[C@H](C)c2ccc(-c3scnc3C)cc2)C(C)(C)C)nn1 | 8.00 | 6.16 | < 4.70 | < 4.70 | < 4.70 | – | – | –
Cc1ncsc1-c1ccc(CNC(=O)[C@@H]2C[C@@H](O)CN2C(=O)[C@@H](NC(=O)CCCCCCCCCCn2cc(COc3cc4ncnc(Nc5ccc(F)c(Cl)c5)c4cc3NC(=O)/C=C/CN(C)C)nn2)C(C)(C)C)cc1 | 7.96 | 5.83 | < 4.70 | < 4.70 | < 4.70 | – | – | –
CCN(CC)C/C=C/C(=O)Nc1cc2c(Nc3ccc(F)c(Cl)c3)ncnc2cc1OCCCCCc1cn(CCCCCCCCCCC(=O)N[C@H](C(=O)N2C[C@H](O)C[C@H]2C(=O)N[C@H](C)c2ccc(-c3scnc3C)cc2)C(C)(C)C)nn1 | 8.00 | 5.27 | < 4.70 | < 4.70 | < 4.70 | – | – | –
CCN(CC)C/C=C/C(=O)Nc1cc2c(Nc3ccc(F)c(Cl)c3)ncnc2cc1OCCCCCc1cn(CCCCC(=O)N[C@H](C(=O)N2C[C@H](O)C[C@H]2C(=O)NCc2ccc(-c3scnc3C)cc2)C(C)(C)C)nn1 | 7.23 | 5.46 | < 4.70 | < 4.70 | < 4.70 | – | – | –
CCN(CC)C/C=C/C(=O)Nc1cc2c(Nc3ccc(F)c(Cl)c3)ncnc2cc1OCc1cn(CCCCC(=O)N[C@H](C(=O)N2C[C@H](O)C[C@H]2C(=O)N[C@H](C)c2ccc(-c3scnc3C)cc2)C(C)(C)C)nn1 | 7.41 | 5.13 | < 4.70 | < 4.70 | < 4.70 | – | – | –
Cc1ncsc1-c1ccc(CNC(=O)[C@@H]2C[C@@H](O)CN2C(=O)[C@@H](NC(=O)CCCCCCCn2cc(CCCCCOc3cc4ncnc(Nc5ccc(F)c(Cl)c5)c4cc3NC(=O)/C=C/CN3CCCCC3)nn2)C(C)(C)C)cc1 | 7.28 | 5.24 | < 4.70 | < 4.70 | < 4.70 | – | – | –
CCN(CC)C/C=C/C(=O)Nc1cc2c(Nc3ccc(F)c(Cl)c3)ncnc2cc1OCCCCCc1cn(CCCCCCCC(=O)N[C@H](C(=O)N2C[C@H](O)C[C@H]2C(=O)N[C@H](C)c2ccc(-c3scnc3C)cc2)C(C)(C)C)nn1 | 7.52 | 6.02 | < 4.70 | < 4.70 | < 4.70 | – | – | –

Continued by rising pIC50 (HCC827 [1]), values first:

pIC50 (HCC827 [1]) | pIC50 (NCI-H1975 [2]) | pIC50 (A-431) | pIC50 (A549) | Structure (SMILES) | pIC50 [3] | inhibition in vivo at 10 mg/kg [4] [%] | inhibition in vivo at 5 mg/kg (HCC827 [5]) [%] | inhibition in vivo at 10 mg/kg (NCI-H1975 [6]) [%]
7.08 | 5.55 | < 4.70 | < 4.70 | CCN(CC)C/C=C/C(=O)Nc1cc2c(Nc3ccc(F)c(Cl)c3)ncnc2cc1OCCCCCc1cn(CCOCCOCC(=O)N[C@H](C(=O)N2C[C@H](O)C[C@H]2C(=O)NCc2ccc(-c3scnc3C)cc2)C(C)(C)C)nn1 | < 4.70 | – | – | –
7.27 | 5.73 | < 4.70 | < 4.70 | CCN(CC)C/C=C/C(=O)Nc1cc2c(Nc3ccc(F)c(Cl)c3)ncnc2cc1OCCCCCc1cn(CCCCC(=O)N[C@H](C(=O)N2C[C@H](O)C[C@H]2C(=O)N[C@H](C)c2ccc(-c3scnc3C)cc2)C(C)(C)C)nn1 | < 4.70 | – | – | –
7.30 | 5.30 | < 4.70 | < 4.70 | Cc1ncsc1-c1ccc(CNC(=O)[C@@H]2C[C@@H](O)CN2C(=O)[C@@H](NC(=O)CCCCn2cc(COCCOCCOCCOc3cc4ncnc(Nc5ccc(F)c(Cl)c5)c4cc3NC(=O)/C=C/CN3CCCCC3)nn2)C(C)(C)C)cc1 | < 4.70 | – | – | –
7.37 | 5.59 | 4.94 | < 4.70 | Cc1ncsc1-c1ccc(CNC(=O)[C@@H]2C[C@@H](O)CN2C(=O)[C@@H](NC(=O)CCCCCCCn2cc(COCCOCCOCCOc3cc4ncnc(Nc5ccc(F)c(Cl)c5)c4cc3NC(=O)/C=C/CN3CCCCC3)nn2)C(C)(C)C)cc1 | < 4.70 | – | – | –
7.42 | 4.85 | < 4.70 | < 4.70 | Cc1ncsc1-c1ccc(CNC(=O)[C@@H]2C[C@@H](O)CN2C(=O)[C@@H](NC(=O)CCCCCCCCCCn2cc(COc3cc4ncnc(Nc5ccc(F)c(Cl)c5)c4cc3NC(=O)/C=C/CN3CCN(C)CC3)nn2)C(C)(C)C)cc1 | < 4.70 | – | – | –
7.51 | 5.86 | < 4.70 | < 4.70 | CCN(CC)C/C=C/C(=O)Nc1cc2c(Nc3ccc(F)c(Cl)c3)ncnc2cc1OCCCCCc1cn(CCCCCCCC(=O)N[C@H](C(=O)N2C[C@H](O)C[C@H]2C(=O)NCc2ccc(-c3scnc3C)cc2)C(C)(C)C)nn1 | < 4.70 | – | – | –
7.72 | < 4.70 | < 4.70 | < 4.70 | Cc1ncsc1-c1ccc(CNC(=O)[C@@H]2C[C@@H](O)CN2C(=O)[C@@H](NC(=O)CCCCCCCCCCn2cc(COc3cc4ncnc(Nc5ccc(F)c(Cl)c5)c4cc3NC(=O)/C=C/CN3CCOCC3)nn2)C(C)(C)C)cc1 | < 4.70 | – | – | –
7.82 | 5.63 | 4.94 | < 4.70 | Cc1ncsc1-c1ccc(CNC(=O)[C@@H]2C[C@@H](O)CN2C(=O)[C@@H](NC(=O)CCCCCCCCCCn2cc(COCCOCCOCCOc3cc4ncnc(Nc5ccc(F)c(Cl)c5)c4cc3NC(=O)/C=C/CN3CCCCC3)nn2)C(C)(C)C)cc1 | < 4.70 | – | – | –
8.00 | 5.51 | < 4.70 | < 4.70 | CCN(CC)C/C=C/C(=O)Nc1cc2c(Nc3ccc(F)c(Cl)c3)ncnc2cc1OCCCCCc1cn(CCCCCCCCCCC(=O)N[C@H](C(=O)N2C[C@H](O)C[C@H]2C(=O)NCc2ccc(-c3scnc3C)cc2)C(C)(C)C)nn1 | < 4.70 | – | – | –
8.15 | 6.15 | 5.71 | 6.31 | COc1cc2ncnc(Nc3ccc(F)c(Cl)c3)c2cc1NC(=O)/C=C/CN1CCCCC1 [DACOMITINIB ANHYDROUS] | 5.15 | – | 90 | 67
8.40 | 5.71 | < 4.70 | < 4.70 | Cc1ncsc1-c1ccc(CNC(=O)[C@@H]2C[C@@H](O)CN2C(=O)[C@@H](NC(=O)COCCOCCn2cc(CCCCCOc3cc4ncnc(Nc5ccc(F)c(Cl)c5)c4cc3NC(=O)/C=C/CN3CCCCC3)nn2)C(C)(C)C)cc1 | < 4.70 | – | – | –

From ChEMBL document CHEMBL5523716, “Discovery of novel EGFR-PROTACs capable of degradation of multiple EGFR-mutated proteins” (Eur J Med Chem, 2024)
